Earlier results in patent publication US20130317108A1, “DERMATOLOGICAL FOAMS OBTAINED FROM A GEL OR SUSPENSION CONTAINING A COMBINATION OF ADAPALENE AND BENZOYL PEROXIDE” (GALDERMA RESEARCH & DEVELOPMENT, priority 2010, published 2013).
Like-named read-outs stand apart in the source and are kept apart here.

Assays:
[1] = in presence of benzoyl peroxide formulation
[2] = 40° C.
[3] = in suspension (dispersed form) in water and propylene glycol, 90 days of storage

SMILES	retinoid degraded ([1]; within 24 hours)	degradation time (half-life time) ([2]; in PEG 400 (0.5 mg/g)) [days]	degradation time (half-life time) ([2]; in ethanol) [days]	degradation time (half-life time) ([2]; in propylene glycol) [days]	degradation on storage [3]	retinoid degraded ([1]; within 2 hours) [%]
COc1ccc(-c2ccc3cc(C(=O)O)ccc3c2)cc1C12CC3CC(CC(C3)C1)C2 [adapalene, 6-[3-(1-Adamantyl)-4-methoxyphenyl]-2-naphthoic acid]	no degradation					
O=C(OOC(=O)c1ccccc1)c1ccccc1 [benzoyl peroxide]		1.4	29	53	not degraded	
CC1=C(/C=C/C(C)=C/C=C/C(C)=C/C(=O)O)C(C)(C)CCC1 [tretinoin]	95%					50
